Values quoted from earlier work in patent US9907754B2 (VECTURA LIMITED, priority 2013, dated 2018).

How the values were obtained:
[1] = henderson-hasselbalch (1908)
[2] = EFSA; no indications of inhalation toxicity or intolerability

| water pick up, % of mass (humidity >70% RH) [%] | moisture pick up (relative humidity as high as 70%) | Structure (SMILES) | pKa of the sulphur-hydryl group [1] | tolerable dose [2] [mg/kg/day] |
| --- | --- | --- | --- | --- |
| 10 | less than 1% | OC[C@@H](O)[C@@H](O)[C@H](O)[C@H](O)CO [Mannitol] |  |  |
|  |  | NCCS(=O)(=O)O [Taurine, 2-aminoethanesulfonic acid] | 1.49 | > 1000 |
